Assay results published in patent publication US6586631B1, “Acetoacetarylamides” (Lonza, Ltd., priority 1998, dated 2003).
Values belong to the molecule of their own block, whether it stands above or below them.

Experiment: Time to dissolve in 0.5 M aqueous sodium hydroxide solution at 20° C.
Type: physicochemical
Method: The novel acetoacetarylamides dissolve in a 0.5 N sodium hydroxide solution at 20° C. in from approximately half to one third of the time required by a dried acetoacetarylide prepared according to the prior art.
Water was introduced into a 1.5 l bench stirrer and adjusted to a temperature of 20° C. The stirrer was then rendered inert using nitrogen. Using two pumps, 133 g of aniline and 124 g of diketene were metered in over the course of 10 minutes. The addition of aniline was delayed by about 30 sec. At the end of the metered addition, the reaction temperature increased to 65° to 70° C. The mixture was then allowed to react for a further 30 minutes, and the reaction temperature dropped to 60° C. Vacuum cooling (450 to 120 mbar) was used to cool the mixture to 40° C., and the liquid acetoacetanilide began to crystallize, as a result of which the temperature immediately rose to about 58° C. The mixture was then cooled to 15° C. At 15° C., the solid product was centrifuged off, washed with 50 ml of water and dried at 50° C. under reduced pressure for 12 h. This method gave acetoacetanilide having a content of >99.5 percent (with a residual moisture content of <0.1 percent). The yield in terms of aniline was 97.1 percent, and in terms of diketene was 92.0 percent. A crystalline product having an average particle size of 450 to 500 μm was obtained. 50 g of the resulting acetoacetanilide (dry, 99.5 percent, water content <0.1 percent) dissolved completely at 20° C. in 500 ml of a 0.5 M aqueous sodium hydroxide solution in 25 minutes.
This gave white flakes having an average thickness of 0.08 mm and an average diameter of from 0.5 mm to […]. 55.6 g of the resulting acetoacetanilide (moist, content of acetoacetanilide 89.5 percent, water content 10 percent) dissolved completely at 20° C. in 500 ml of a 0.5 M aqueous sodium hydroxide solution in about 15 minutes.

[1] = 55.6 g (moist, content 89.5 percent, water content 10 percent) in 500 ml of 0.5 M aqueous sodium hydroxide solution
[2] = 60 g moist pastilles in 500 ml of 0.5 M aqueous sodium hydroxide solution
[3] = 60 g moist pastilles in 700 ml of 0.5 M aqueous sodium hydroxide solution

time to dissolve completely (50 g (dry, 99.5 percent, water content <0.1 percent) in 500 ml of 0.5 M aqueous sodium hydroxide solution): 25 min
SMILES: CC(=O)CC(=O)Nc1ccccc1 [Example 1, Acetoacetanilide, reference compound]

time to dissolve completely [1]: about 15 minutes
SMILES: CC(=O)CC(=O)Nc1ccccc1 [Example 4, Acetoacetanilide]

time to dissolve completely [1]: about 17 minutes
SMILES: CC(=O)CC(=O)Nc1ccccc1 [Example 5, Acetoacetanilide]

time to dissolve completely [1]: about 17 minutes
SMILES: CC(=O)CC(=O)Nc1ccccc1 [Example 6, Acetoacetanilide]

time to dissolve [2]: about 20 minutes
SMILES: COc1ccccc1NC(=O)CC(C)=O [Example 7, o-acetoacetanisidide]

time to dissolve [3]: about 19 minutes
SMILES: CC(=O)CC(=O)Nc1ccccc1C [Example 8, o-acetoacetotoluidide]

SMILES: CC(=O)CC(=O)Nc1ccc(C)cc1C [Example 9, m-acetoacetoxylidide]
time to dissolve [3]: about 18 minutes

time to dissolve [2]: about 18 minutes
SMILES: CC(=O)CC(=O)Nc1ccccc1Cl [Example 10, o-Acetoacetochloroanilide]
